These results are taken from patent publication US8871796B2, “Diaryl ether derivatives as notch sparing gamma secretase inhibitors” (Merck Sharp & Dohme Corp., priority 2009, dated 2014).

Molecules are shown by their SMILES. Like-named read-outs stand apart in the source and are kept apart here. Some results are limits rather than exact numbers.

The assay is described as follows: APP processing: AlphaLisa assay of secreted Aβ40 and Aβ42 from SP4CT cells. Type of assay: cell-based. To be noted: Homo sapiens, SH-SY5Y cells expressing amyloid β protein (SP4CT cells). The method in brief:
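Secreted Aβ40 and Aβ42 were quantified separately by AlphaLisa luminescence, pairing streptavidin donor beads bearing biotinylated 4G8 with G210 or 12F4 acceptor beads. Samples were conditioned media from compound-treated SH-SY5Y cells expressing amyloid β protein (SP4CT).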

Setting [1] is: read-out: IC50, inhibition of production of Aβ40 peptide.
Setting [2] is: read-out: IC50, inhibition of production of Aβ42 peptide.

With `CCC(O)c1ccc(Oc2cc(-c3cccc(C(C)(C)NS(=O)(=O)CC(F)(F)F)c3)nn2CC)cc1` (stereo not shown) [Example 67, N-[1-(3-{1-ethyl-5-[4-(1-hydroxypropyl)phenoxy]-1H-pyrazol-3-yl}phenyl)-1-methylethyl]-2,2,2-trifluoroethanesulfonamide], the IC50 is < 0.2 µM under setting [1] and < 0.2 µM under setting [2].
For the molecule `CCn1nc(-c2cccc(C(C)(C)NS(=O)(=O)CC(F)(F)F)c2)cc1Oc1ccc(CNc2ccccc2)cc1` [Example 84, N-[1-(3-{5-[4-(anilinomethyl)phenoxy]-1-ethyl-1H-pyrazol-3-yl}phenyl)-1-methylethyl]-2,2,2-trifluoroethanesulfonamide], the IC50 is < 0.2 µM under setting [1] and < 0.2 µM under setting [2].
As to `CCn1nc(-c2cccc(C(C)(C)NS(=O)(=O)CC(F)(F)F)c2)cc1Oc1ccc(CNCC(=O)OC)cc1` [Example 81, methyl N-[4-({1-ethyl-3-[3-(1-methyl-1-{[(2,2,2-trifluoroethyl)sulfonyl]amino}ethyl)phenyl]-1H-pyrazol-5-yl}oxy)benzyl]glycinate], the IC50 reads like this: under setting [1], < 0.2 µM; under setting [2], < 0.2 µM.
As for `CCn1nc(Oc2ccc(C(F)(F)F)cc2)cc1-c1cccc(C(C)(C)NS(=O)(=O)NC2CCC2)c1` [Example 16, N-cyclobutyl-N′-[1-(3-{1-ethyl-3-[4-(trifluoromethyl)phenoxy]-1H-pyrazol-5-yl}phenyl)-1-methylethyl]sulfamide], the IC50 under setting [1] was < 0.2 µM and the IC50 under setting [2] was < 0.2 µM.
Take `CCn1nc(-c2cccc(C(C)(C)NS(=O)(=O)CC(F)(F)F)c2)cc1Oc1ccc(CNc2nccs2)cc1` [Example 86, N-{1-[3-(1-ethyl-5-{4-[(1,3-thiazol-2-ylamino)methyl]phenoxy}-1H-pyrazol-3-yl)phenyl]-1-methylethyl}-2,2,2-trifluoroethanesulfonamide]: the IC50 is < 0.2 µM under setting [1] and < 0.2 µM under setting [2].
With `CCn1nc(-c2cccc(C(C)(C)NS(=O)(=O)CC(F)(F)F)c2)cc1Oc1ccc(C(C)(C)C)cc1` [Example 60, N-(1-{3-[5-(4-tert-butylphenoxy)-1-ethyl-1H-pyrazol-3-yl]phenyl}-1-methylethyl)-2,2,2-trifluoroethanesulfonamide], the IC50 is, setting by setting: under setting [1], < 0.2 µM; under setting [2], < 0.2 µM.
For the molecule `CCn1nc(-c2cccc(C(C)(C)NS(=O)(=O)CC(F)(F)F)c2)c(Br)c1Oc1ccc(C(F)(F)F)cc1` [Example 115, N-[2-(3-{4-bromo-1-ethyl-5-[4-(trifluoromethyl)phenoxy]-1H-pyrazol-3-yl}phenyl)propan-2-yl]-2,2,2-trifluoroethanesulfonamide], the IC50 is, setting by setting: under setting [1], < 0.2 µM; under setting [2], < 0.2 µM.
For the molecule `CCn1nc(Oc2ccc(C(F)(F)F)cc2)c(Br)c1-c1cccc(C(C)(C)NS(=O)(=O)CC(F)(F)F)c1` [Example 114, N-[2-(3-{4-Bromo-1-ethyl-3-[4-(trifluoromethyl)phenoxy]-1H-pyrazol-5-yl}phenyl)propan-2-yl]-2,2,2-trifluoroethanesulfonamide], the IC50 is, setting by setting: under setting [1], < 0.2 µM; under setting [2], < 0.2 µM.
Take `CCn1nc(-c2cccc(C3(NS(=O)(=O)CC(F)(F)F)CC3)c2)cc1Oc1ccncc1` [Example 50, N-(1-{3-[1-ethyl-5-(pyridin-4-yloxy)-1H-pyrazol-3-yl]phenyl}cyclopropyl)-2,2,2-trifluoroethanesulfonamide]: the IC50 under setting [1] is < 0.2 µM and the IC50 under setting [2] was < 0.2 µM.
`CCn1nc(Oc2ccc(C(F)(F)F)cc2)cc1-c1cccc(C(C)(C)NS(=O)(=O)NC2CCCC2)c1` [Example 18, N-cyclopentyl-N′-[1-(3-{1-ethyl-3-[4-(trifluoromethyl)phenoxy]-H-pyrazol-5-yl}phenyl)-1-methylethyl]sulfamide]: the IC50 under setting [1] was < 0.2 µM and the IC50 under setting [2] was < 0.2 µM.
With `CCn1nc(-c2cccc(C(C)(C)NS(=O)(=O)CC(F)(F)F)c2)cc1Oc1ccc(CNc2cccnc2)cc1` [Example 85, N-{1-[3-(1-ethyl-5-{4-[(pyridin-3-ylamino)methyl]phenoxy}-1H-pyrazol-3-yl)phenyl]-1-methylethyl}-2,2,2-trifluoroethanesulfonamide], the half-inhibitory concentration (IC50) was < 0.2 µM under setting [1] and < 0.2 µM under setting [2].
Consider `O=S(=O)(CC(F)(F)F)NC1(c2cccc(-c3cc(Oc4ccc(C(F)(F)F)cc4)n(CC4CCCCO4)n3)c2)COC1` (stereo not shown) [Example 140], for which the half-inhibitory concentration (IC50) was < 0.2 µM under setting [1] and < 0.2 µM under setting [2].
For the molecule `CCn1nc(-c2cccc(C(C)(C)NS(=O)(=O)CC(F)(F)F)c2)cc1Oc1ccc(C)cc1` [Example 59, N-(1-{3-[1-ethyl-5-(4-methylphenoxy)-1H-pyrazol-3-yl]phenyl}-1-methylethyl)-2,2,2-trifluoroethanesulfonamide], the IC50 was < 0.2 µM under setting [1] and < 0.2 µM under setting [2].
With `CCn1nc(-c2cccc(C(C)(C)NS(=O)(=O)NCC(C)C)c2)cc1Oc1ccc(C(F)(F)F)cc1` [Example 9, N-[1-(3-{1-ethyl-5-[4-(trifluoromethyl)phenoxy]-1H-pyrazol-3-yl}phenyl)-1-methylethyl]-N′-isobutylsulfamide], the IC50 by setting is: under setting [1], < 0.2 µM; under setting [2], < 0.2 µM.
Turning to `CCn1nc(Oc2ccc(C(F)(F)F)cc2)cc1-c1cccc(C(C)(C)NS(=O)(=O)N2CCCC2)c1` [Example 26, N-[1-(3-{1-ethyl-3-[4-(trifluoromethyl)phenoxy]-1H-pyrazol-5-yl}phenyl)-1-methylethyl]pyrrolidine-1-sulfonamide], the half-maximal inhibitory concentration (IC50) reads like this: under setting [1], < 0.2 µM; under setting [2], < 0.2 µM.
As for `CCn1nc(-c2cccc(C(C)(C)NS(=O)(=O)C3CC3)c2)cc1Oc1ccc(C(F)(F)F)cc1` [Example 12, N-[1-(3-{1-ethyl-5-[4-(trifluoromethyl)phenoxy]-1H-pyrazol-3-yl}phenyl)-1-methylethyl] cyclopropanesulfonamide], the IC50 reads like this: under setting [1], < 0.2 µM; under setting [2], < 0.2 µM.
As to `CCn1nc(-c2cccc(C3(NS(=O)(=O)CC(F)(F)F)COC3)c2)cc1Oc1ccc(C(F)(F)F)cc1` [Example 95, N-[3-(3-{1-ethyl-5-[4-(trifluoromethyl)phenoxy]-1H-pyrazol-3-yl}phenyl)oxetan-3-yl]-2,2,2-trifluoroethanesulfonamide], the IC50 is < 0.2 µM under setting [1] and < 0.2 µM under setting [2].
Take `CCn1nc(-c2cccc(C(C)(C)NS(=O)(=O)CC(F)(F)F)c2)cc1Oc1ccc(CNCC2CCOCC2)cc1` [Example 91, N-(1-{3-[1-ethyl-5-(4-{[(tetrahydro-2H-pyran-4-ylmethyl)amino]methyl}phenoxy)-1H-pyrazol-3-yl]phenyl}-1-methylethyl)-2,2,2-trifluoroethanesulfonamide]: the half-maximal inhibitory concentration (IC50) runs as follows: under setting [1], < 0.2 µM; under setting [2], < 0.2 µM.
Regarding `CCn1nc(-c2cccc(C3(NS(=O)(=O)CC(F)(F)F)CC3)n2)cc1Oc1ccc(C(F)(F)F)cc1` [Example 51, N-[1-(6-{1-ethyl-5-[4-(trifluoromethyl)phenoxy]-1H-pyrazol-3-yl}pyridin-2-yl)cyclopropyl]-2,2,2-trifluoroethanesulfonamide], the IC50 was < 0.2 µM under setting [1] and < 0.2 µM under setting [2].
As for `CCn1nc(-c2cccc(C3(NS(=O)(=O)CC(F)(F)F)CCC3)c2)cc1Oc1ccc(C(F)(F)F)cc1` [Example 109, N-[1-(3-{1-ethyl-5-[4-(trifluoromethyl)phenoxy]-1H-pyrazol-3-yl}phenyl)cyclobutyl]-2,2,2-trifluoroethanesulfonamide], the IC50 was < 0.2 µM under setting [1] and < 0.2 µM under setting [2].
